# Results taken from US20050130232A1, “Methods of screening for compounds that modulate hormone receptor activity” (Allergan, Inc., priority 2001, published 2005).
# Target: T1, RXRα associated protein kinase (Homo sapiens, UniProt P19793)
# T1 sequence (P19793 1-462): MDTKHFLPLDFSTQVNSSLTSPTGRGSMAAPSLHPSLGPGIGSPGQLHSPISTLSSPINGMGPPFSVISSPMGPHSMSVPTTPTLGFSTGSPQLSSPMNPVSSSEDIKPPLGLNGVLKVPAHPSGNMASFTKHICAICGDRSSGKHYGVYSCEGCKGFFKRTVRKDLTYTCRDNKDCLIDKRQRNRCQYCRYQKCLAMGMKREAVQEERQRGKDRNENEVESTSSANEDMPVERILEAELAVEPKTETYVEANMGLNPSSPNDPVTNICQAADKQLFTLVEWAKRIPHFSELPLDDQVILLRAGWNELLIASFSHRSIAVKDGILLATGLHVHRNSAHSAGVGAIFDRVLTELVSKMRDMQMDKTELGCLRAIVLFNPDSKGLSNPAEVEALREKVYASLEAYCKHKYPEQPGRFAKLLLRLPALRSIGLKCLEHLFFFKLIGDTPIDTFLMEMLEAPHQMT
# Assay: In vitro phosphorylation of exogenous protein substrates by RXR-associated kinase
# Format: cell-based
# Conditions: Flag-RXR transfected cells, 10^-7 M
# Description: Total cell lysates were immunoprecipitated with anti-FLAG antibody (M2). Immunoprecipitated material was used for in vitro kinas reaction with γ-^32P-ATP alone or with addition of exogenous mixed histones or myelin basic protein (MBP). The phosphorylated proteins were separated on SDS-PAGE and detected by autoradiography.
# After terminating the kinase reaction, the products were analyzed by SDS-PAGE.
# Kinase reactions with purified proteins were performed essentially as described above for synthetic peptide substrates. Briefly, immunoprecipitated complexes were resuspended in kinase assay buffer with 2 μg myelin basic protein (Sigma) or histone-M (Roche), and kinase reactions initiated by addition of 50 μM [γ-^32P]ATP (10 μCi). The reaction mixtures were then incubated at 25° C. with occasional shaking for 20 minutes, and terminated by addition of sample buffer. SDS-PAGE analysis and autoradiography were used to visualize the results.
smiles,measurement,value
CC(/C=C/[C@@H]1C[C@]1(C)c1ccc2c(c1)C(C)(C)CCC2(C)C)=C\C(=O)O [AGN194204],in vitro phosphorylation of histone-M,increased
same,in vitro phosphorylation of myelin basic protein (MBP),dramatically increased
